Experimental findings from US12390437B2, “Itaconic acid derivatives and uses thereof intreating an inflammatory disease or a disease associated with an undesirable immune response” (Sitryx Therapeutics Limited, priority 2019, dated 2025) are described below.

The structures appear in SMILES notation.

One assay concerns IL-1β cytokine output from THP-1s. Nature of the assay: THP-1 AlphaLISA IL-1β cytokine assay. The format is cell-based, human. The following applies: Homo sapiens, THP-1, PMA-differentiated THP-1 cells, LPS 24 hr then Nigericin 1 hour; read-out: IL-1β (IC50). The procedure: Measuring Inhibitory Effects on IL-1β and IL-6 Cytokine Output from THP-1s
The cytokine inhibition profiles of compounds of formula (IW-1) were determined in a differentiated THP-1 cell assay. All assays were performed in RPMI-1640 growth medium (Gibco), supplemented with 10% fetal bovine serum (FBS; Gibco), 1% penicillin-streptomycin and 1% sodium pyruvate unless specified otherwise. The IL-1β and IL-6 cytokine inhibition assays were each run in a background of differentiated THP-1 cells as described below. All reagents described were from Sigma-Aldrich unless specified otherwise. Compounds were prepared as 10 mM DMSO stocks.
THP-1 cells were expanded as a suspension up to 80% confluence in appropriate growth medium. Cells were harvested, suspended, and treated with an appropriate concentration of phorbol 12-myristate 13-acetate (PMA) over a 72 hr period (37° C./5% CO2).
Following 72 hrs of THP-1 cell incubation, cellular medium was removed and replaced with fresh growth media containing 1% of FBS. Working concentrations of compounds were prepared separately in 10% FBS treated growth medium and pre-incubated with the cells for 30 minutes (37° C./5% CO2). Following the 30 minute compound pre-incubation, THP-1s were treated with an appropriate concentration of LPS and the THP-1s were subsequently incubated for a 24 hr period (37° C./5% CO2). An appropriate final concentration of Nigericin was then dispensed into the THP-1 plates and incubated for 1 hour (37° C./5% CO2) before THP-1 supernatants were harvested and collected in separate polypropylene 96-well holding plates.
Reagents from each of the IL-1β and IL-6 commercial kits (Perkin Elmer) were prepared and run according to the manufacturer's instructions. Subsequently, fluorescence signal detection in a microplate reader was measured (EnVision® Multilabel Reader, Perkin Elmer).
Percentage inhibition was calculated per cytokine by normalising the sample data to the high and low controls used within each plate (+/−LPS respectively). Percentage inhibition was then plotted against compound concentration and the 50% inhibitory concentration (IC50) was determined from the resultant concentration-response curve.
For orientation: Bead proximity is the source of the signal in Alpha formats.
Usually IC50 stands for the point on the concentration scale where inhibition reaches its midpoint. Regarding `C=C(CC(=O)OC1(CCCCC)CCC1)C(=O)OCC(=O)O` [Example 194, 2-((2-methylene-4-oxo-4-(1-pentylcyclobutoxy)butanoyl)oxy)acetic acid], the IC50 is 24.8 µM.

For the molecule `C=C(CC(=O)O[C@@H](C)C1CCCCC1)C(=O)OCC(=O)O` [Example 203, (S)-2-((4-(1-cyclohexylethoxy)-2-methylene-4-oxobutanoyl)oxy)acetic acid], the concentration for half-maximal inhibition (IC50) is 22 µM.

`C=C(CC(=O)O[C@H](C)CCCCCCC)C(=O)OCC(=O)O` [Example 183, (R)-2-((2-methylene-4-(nonan-2-yloxy)-4-oxobutanoyl)oxy)acetic acid]: the IC50 is 9.6 µM.

With `C=C(CC(=O)O[C@H](C)CCCCC)C(=O)OCC(=O)O` [Example 173, (R)-2-((4-(heptan-2-yloxy)-2-methylene-4-oxobutanoyl)oxy)acetic acid], the concentration for half-maximal inhibition (IC50) is 27.6 µM.

Regarding `C=C(CC(=O)O[C@@H](C)c1ccc(C(F)(F)F)cc1)C(=O)OCC(=O)O` [Example 201, (S)-2-((2-methylene-4-oxo-4-(1-(4-(trifluoromethyl)phenyl)ethoxy)butanoyl)oxy) acetic acid], the IC50 was found to be 24.6 µM.

As for `C=C(CC(=O)OC1CCCCCCC1)C(=O)OCC(C)(C)S(C)(=O)=O` [Example 132, 4-cyclooctyl 1-(2-methyl-2-(methylsulfonyl)propyl) 2-methylenesuccinate], the IC50 came out at 4.3 µM.

Take `C=C(CC(=O)O[C@H](C)CCCCCC)C(=O)O[C@H]1[C@@H]2CC[C@H]1CN(S(C)(=O)=O)C2` [Example 186, 1-((endo)-3-(methylsulfonyl)-3-azabicyclo[3.2.1]octan-8-yl) 4-((R)-octan-2-yl) 2-methylenesuccinate]: the IC50 worked out at 3.5 µM.

For `C=C(CC(=O)OC1CCCCC1)C(=O)OC1CN(C(C)=O)C1` [Example 74, 1-(1-acetylazetidin-3-yl) 4-cyclohexyl 2-methylenesuccinate], the IC50 is 4.2 µM.

Consider `C=C(CC(=O)O[C@@H](C)CCCCCC)C(=O)OC(C)Cc1nnn[nH]1` (stereo partly drawn) [Example 141, 1-(1-(1H-tetrazol-5-yl)propan-2-yl) 4-((S)-octan-2-yl) 2-methylenesuccinate], for which the IC50 amounted to 6.5 µM.

`C=C(CC(=O)O[C@H](C)CCCCCC)C(=O)O[C@@H](CC(=O)O)C(F)(F)F` [Example 205, (S)-4,4,4-trifluoro-3-((2-methylene-4-(((R)-octan-2-yl)oxy)-4-oxobutanoyl)oxy)butanoic acid]: the half-inhibitory concentration (IC50) was 1.7 µM.

`C=C(CC(=O)OC(C1CCCCC1)C(F)(F)F)C(=O)OCC(=O)O` (centres unmarked) [Example 180, 2-((4-(1-cyclohexyl-2,2,2-trifluoroethoxy)-2-methylene-4-oxobutanoyl)oxy)acetic acid]: the IC50 stood at 8.2 µM.

With `C=C(CC(=O)O[C@H](C)CCCCCC)C(=O)OCc1cc(=O)[nH]o1` [Example 187, (R)-4-(octan-2-yl) 1-((3-oxo-2,3-dihydroisoxazol-5-yl)methyl) 2-methylenesuccinate], the IC50 was 2.9 µM.

Consider `C=C(CC(=O)OC1(C)CC2(CCCCC2)C1)C(=O)OCC(=O)O` [Example 195, 2-((2-methylene-4-((2-methylspiro[3.5]nonan-2-yl)oxy)-4-oxobutanoyl)oxy)acetic acid], for which the IC50 worked out at 24.3 µM.

For the molecule `C=C(CC(=O)O[C@H](C)C1CCCCC1)C(=O)OCC(=O)O` [Example 184, (R)-2-((4-(1-cyclohexylethoxy)-2-methylene-4-oxobutanoyl)oxy)acetic acid], the IC50 was determined as 33.9 µM.

On to `C=C(CC(=O)OC1CCCCC1(C)C)C(=O)OCC(=O)O` (centres unmarked) [Example 155, 2-((4-((2,2-dimethylcyclohexyl)oxy)-2-methylene-4-oxobutanoyl)oxy)acetic acid], for which the IC50 turned out to be 16.5 µM.

Regarding `C=C(CC(=O)OCCCCCC)C(=O)OCCN1CCCC1=O` [Example 77, 4-hexyl 1-(2-(2-oxopyrrolidin-1-yl)ethyl) 2-methylenesuccinate], the IC50 was found to be 14.5 µM.

Consider `C=C(CC(=O)OC1CCCCCCC1)C(=O)OCC(=O)N1CCC[C@H]1C(=O)O` [Example 104, (2-((4-(cyclooctyloxy)-2-methylene-4-oxobutanoyl)oxy)acetyl)-L-proline], for which the IC50 was 14.4 µM.

In the case of `C=C(CC(=O)OC1(CCCCC)CC1)C(=O)OCC(=O)O` [Example 206, 2-((2-methylene-4-oxo-4-(1-pentylcyclopropoxy)butanoyl)oxy)acetic acid], the IC50 came to 19.1 µM.

In the case of `C=C(CC(=O)OC1CCC2(CCC2)CC1)C(=O)OCC(=O)O` [Example 154, 2-(2-methylene-4-oxo-4-(spiro[3.5]nonan-7-yloxy)butanoyloxy)acetic acid], the concentration for half-maximal inhibition (IC50) was 8.4 µM.

Take `C=C(CC(=O)OC1CCCCC1)C(=O)O[C@@H](C(=O)O)c1ccccc1` [Example 127, (R)-2-((4-(cyclohexyloxy)-2-methylene-4-oxobutanoyl)oxy)-2-phenylacetic acid]: the IC50 was determined as 44.9 µM.

For `C=C(CC(=O)OC(C)c1cc(Cl)cc(Cl)c1)C(=O)OCC(=O)O` (centres unmarked) [Example 176, 2-((4-(1-(3,5-dichlorophenyl)ethoxy)-2-methylene-4-oxobutanoyl)oxy)acetic acid], the half-maximal inhibitory concentration (IC50) is 12 µM.

As for `C=C(CC(=O)O[C@H](C)c1ccc(C(F)(F)F)cc1)C(=O)OCC(=O)O` [Example 200, (R)-2-((2-methylene-4-oxo-4-(1-(4-(trifluoromethyl)phenyl)ethoxy)butanoyl)oxy) acetic acid], the IC50 is 11.5 µM.

The assay is the same for the next values; noted with them: Homo sapiens, THP-1, read-out: IL-1β (IC50).
As to `C=C(CC(=O)OCC(=O)O)C(=O)OCCS(=O)(=O)c1cccc(Cl)c1` [Example 126, 2-((3-((2-((3-chlorophenyl)sulfonyl)ethoxy)carbonyl)but-3-enoyl)oxy)acetic acid], the IC50 was 0.7 µM.

In the case of `C=C(CC(=O)OC1CCCCC1)C(=O)OC/C=C/C(=O)O` [Example 123, (E)-4-((4-(cyclohexyloxy)-2-methylene-4-oxobutanoyl)oxy)but-2-enoic acid], the IC50 is 19.5 µM.

Staying with this assay, now noted: Homo sapiens; PMA-differentiated THP-1 cells, LPS 24 hr then Nigericin 1 hour; read-out: IL-1β (IC50).
As to `C=C(CC(=O)OC1CCCCC1)C(=O)OCCS(=O)(=O)CCC(=O)O` [Example 124, 3-((2-((4-(cyclohexyloxy)-2-methylene-4-oxobutanoyl)oxy)ethyl)sulfonyl)propanoic acid], the IC50 amounted to 52.4 µM.

As for `C=C(CC(=O)OC(C(C)(C)C)C(C)(C)C)C(=O)OCC(=O)O` [Example 204, 2-((2-methylene-4-oxo-4-((2,2,4,4-tetramethylpentan-3-yl)oxy)butanoyl)oxy)acetic Acid], the IC50 stood at 41.7 µM.

On to `C=C(CC(=O)OC1(C2CCCCC2)CC1)C(=O)OCC(=O)O` [Example 202, 2-((4-(1-cyclohexylcyclopropoxy)-2-methylene-4-oxobutanoyl)oxy)acetic acid], for which the IC50 was 36.7 µM.

The same assay, now with this note: PMA-differentiated THP-1 cells, LPS 24 hr then Nigericin 1 hour; read-out: IL-1β (IC50).
Take `C=C(CC(=O)OC(C)c1cc(Cl)cc(Cl)c1)C(=O)OCC(=O)O` (single isomer, unassigned; isomer 2) [Example 199, 2-((4-(1-(3,5-dichlorophenyl)ethoxy)-2-methylene-4-oxobutanoyl)oxy)acetic acid (Isomer 2)]: the IC50 is 18.3 µM.

Take `C=C(CC(=O)OC1CC2CCC1(C)C2(C)C)C(=O)OCC(=O)O` (stereo not drawn) [Example 196, 2-((2-methylene-4-oxo-4-(((exo)-1,7,7-trimethylbicyclo[2.2.1]heptan-2-yl)oxy)butanoyl)oxy)acetic acid]: the IC50 was 18.8 µM.
